ChEMBL document CHEMBL1145498, “A systematic interaction map of validated kinase inhibitors with Ser/Thr kinases” (Proc Natl Acad Sci U S A, 2007)

molecular target: Serine/threonine-protein kinase 26 (Homo sapiens) (UniProt Q9P289)
Sequence (Q9P289 2-416 limits assumed): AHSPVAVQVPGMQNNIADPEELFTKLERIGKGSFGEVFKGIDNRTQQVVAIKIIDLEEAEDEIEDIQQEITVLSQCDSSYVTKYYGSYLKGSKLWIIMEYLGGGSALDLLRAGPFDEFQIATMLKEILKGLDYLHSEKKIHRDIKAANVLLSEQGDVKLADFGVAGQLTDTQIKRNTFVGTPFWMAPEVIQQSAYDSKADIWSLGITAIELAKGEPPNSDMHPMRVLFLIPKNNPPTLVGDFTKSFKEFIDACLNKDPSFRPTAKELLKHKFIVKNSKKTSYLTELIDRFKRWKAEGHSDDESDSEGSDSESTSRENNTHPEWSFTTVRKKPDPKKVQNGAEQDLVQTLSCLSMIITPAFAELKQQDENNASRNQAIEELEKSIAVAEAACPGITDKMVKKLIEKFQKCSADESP

ΔTm	Compound
0.1 °C	CC(C)n1cnc2c(NCc3ccccc3)nc(NCCCO)nc21
-0.6 °C	Cn1cc(C2=C(c3cn(CCCSC(=N)N)c4ccccc34)C(=O)NC2=O)c2ccccc21

molecular target: Serine/threonine-protein kinase 26 (Homo sapiens) (UniProt Q9P289); remark: another data set of the same source

ΔTm	Compound
-0.3 °C	CC(C)n1cnc2c(NCc3ccccc3)nc(NCCCO)nc21
2.3 °C	Cn1cc(C2=C(c3cn(CCCSC(=N)N)c4ccccc34)C(=O)NC2=O)c2ccccc21

molecular target: Serine/threonine-protein kinase OSR1 (Homo sapiens) (UniProt O95747)

ΔTm	Compound
0.3 °C	CC(C)n1cnc2c(NCc3ccccc3)nc(NCCCO)nc21
-0.5 °C	Cn1cc(C2=C(c3cn(CCCSC(=N)N)c4ccccc34)C(=O)NC2=O)c2ccccc21

molecular target: Mitogen-activated protein kinase 11 (Homo sapiens, UniProt Q15759)
Sequence (Q15759 whole entry): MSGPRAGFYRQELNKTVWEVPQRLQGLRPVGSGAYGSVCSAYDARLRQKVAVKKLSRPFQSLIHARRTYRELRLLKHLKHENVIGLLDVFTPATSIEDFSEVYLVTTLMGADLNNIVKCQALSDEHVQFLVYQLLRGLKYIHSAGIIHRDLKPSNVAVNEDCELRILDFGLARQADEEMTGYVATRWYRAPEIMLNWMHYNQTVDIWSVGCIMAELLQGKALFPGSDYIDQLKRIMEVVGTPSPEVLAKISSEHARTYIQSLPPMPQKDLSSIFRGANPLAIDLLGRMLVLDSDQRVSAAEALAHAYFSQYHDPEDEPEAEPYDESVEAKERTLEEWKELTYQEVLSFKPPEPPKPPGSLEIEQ

ΔTm	Compound
0.1 °C	CC(C)n1cnc2c(NCc3ccccc3)nc(NCCCO)nc21
2 °C	Cn1cc(C2=C(c3cn(CCCSC(=N)N)c4ccccc34)C(=O)NC2=O)c2ccccc21

molecular target: Serine/threonine-protein kinase PAK 5 (Homo sapiens) (UniProt Q9P286)
Sequence (Q9P286 whole entry, looked up): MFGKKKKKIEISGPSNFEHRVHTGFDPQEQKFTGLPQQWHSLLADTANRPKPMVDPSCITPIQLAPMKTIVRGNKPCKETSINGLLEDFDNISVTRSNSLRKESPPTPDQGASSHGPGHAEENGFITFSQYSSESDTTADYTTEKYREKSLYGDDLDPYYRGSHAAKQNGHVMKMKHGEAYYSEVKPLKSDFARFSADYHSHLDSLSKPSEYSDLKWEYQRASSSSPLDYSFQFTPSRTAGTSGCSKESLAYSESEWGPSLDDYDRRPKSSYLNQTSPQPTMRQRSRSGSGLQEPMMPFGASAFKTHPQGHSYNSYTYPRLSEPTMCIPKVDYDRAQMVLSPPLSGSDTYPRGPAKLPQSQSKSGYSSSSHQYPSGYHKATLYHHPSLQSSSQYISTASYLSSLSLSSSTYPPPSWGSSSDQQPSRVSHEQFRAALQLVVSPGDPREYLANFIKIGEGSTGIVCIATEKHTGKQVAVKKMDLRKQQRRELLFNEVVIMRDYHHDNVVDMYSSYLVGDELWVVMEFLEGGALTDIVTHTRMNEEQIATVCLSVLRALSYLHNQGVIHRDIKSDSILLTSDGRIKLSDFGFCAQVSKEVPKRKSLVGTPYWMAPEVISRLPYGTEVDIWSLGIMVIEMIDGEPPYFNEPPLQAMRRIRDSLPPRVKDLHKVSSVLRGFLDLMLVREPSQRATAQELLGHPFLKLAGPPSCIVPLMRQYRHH

ΔTm	Compound
0.4 °C	CC(C)n1cnc2c(NCc3ccccc3)nc(NCCCO)nc21
1.9 °C	Cn1cc(C2=C(c3cn(CCCSC(=N)N)c4ccccc34)C(=O)NC2=O)c2ccccc21

molecular target: Dual specificity protein kinase CLK2 (Homo sapiens) (UniProt P49760)
Sequence (P49760 whole entry, looked up): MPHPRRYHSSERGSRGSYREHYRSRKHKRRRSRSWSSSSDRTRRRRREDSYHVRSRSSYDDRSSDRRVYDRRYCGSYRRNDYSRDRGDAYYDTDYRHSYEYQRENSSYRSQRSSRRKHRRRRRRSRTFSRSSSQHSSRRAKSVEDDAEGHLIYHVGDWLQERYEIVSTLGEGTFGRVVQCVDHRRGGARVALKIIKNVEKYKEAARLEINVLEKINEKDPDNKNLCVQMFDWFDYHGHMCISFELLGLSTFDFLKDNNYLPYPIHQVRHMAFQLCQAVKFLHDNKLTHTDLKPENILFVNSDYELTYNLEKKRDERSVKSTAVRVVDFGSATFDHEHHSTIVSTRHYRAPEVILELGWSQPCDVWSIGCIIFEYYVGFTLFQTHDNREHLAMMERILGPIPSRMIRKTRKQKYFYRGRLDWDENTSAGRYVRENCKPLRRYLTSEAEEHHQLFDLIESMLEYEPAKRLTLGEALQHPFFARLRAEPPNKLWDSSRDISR

ΔTm	Compound
2.2 °C	CC(C)n1cnc2c(NCc3ccccc3)nc(NCCCO)nc21
5.1 °C	Cn1cc(C2=C(c3cn(CCCSC(=N)N)c4ccccc34)C(=O)NC2=O)c2ccccc21

molecular target: T1, Myotonin-protein kinase (Homo sapiens) (UniProt Q09013)
T1 sequence (whole entry): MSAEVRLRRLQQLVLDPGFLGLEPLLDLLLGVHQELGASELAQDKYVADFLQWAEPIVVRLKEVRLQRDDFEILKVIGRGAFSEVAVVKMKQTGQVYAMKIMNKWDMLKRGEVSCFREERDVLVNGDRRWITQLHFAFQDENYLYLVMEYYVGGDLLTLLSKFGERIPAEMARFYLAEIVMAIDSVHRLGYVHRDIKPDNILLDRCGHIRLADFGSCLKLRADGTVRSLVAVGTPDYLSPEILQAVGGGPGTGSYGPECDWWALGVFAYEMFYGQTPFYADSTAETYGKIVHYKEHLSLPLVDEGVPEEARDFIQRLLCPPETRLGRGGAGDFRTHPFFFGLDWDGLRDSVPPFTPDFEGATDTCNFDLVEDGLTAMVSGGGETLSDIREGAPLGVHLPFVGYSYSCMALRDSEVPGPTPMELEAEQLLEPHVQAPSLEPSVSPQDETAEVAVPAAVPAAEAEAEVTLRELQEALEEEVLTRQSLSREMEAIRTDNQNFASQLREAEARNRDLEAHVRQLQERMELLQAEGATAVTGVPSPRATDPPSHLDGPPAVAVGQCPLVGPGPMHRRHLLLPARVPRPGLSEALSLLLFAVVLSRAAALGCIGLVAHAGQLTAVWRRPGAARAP

ΔTm	Compound
0 °C	CC(C)n1cnc2c(NCc3ccccc3)nc(NCCCO)nc21
7.1 °C	Cn1cc(C2=C(c3cn(CCCSC(=N)N)c4ccccc34)C(=O)NC2=O)c2ccccc21

molecular target: T2, Serine/threonine-protein kinase VRK1 (Homo sapiens) (UniProt Q99986)
T2 sequence (whole entry): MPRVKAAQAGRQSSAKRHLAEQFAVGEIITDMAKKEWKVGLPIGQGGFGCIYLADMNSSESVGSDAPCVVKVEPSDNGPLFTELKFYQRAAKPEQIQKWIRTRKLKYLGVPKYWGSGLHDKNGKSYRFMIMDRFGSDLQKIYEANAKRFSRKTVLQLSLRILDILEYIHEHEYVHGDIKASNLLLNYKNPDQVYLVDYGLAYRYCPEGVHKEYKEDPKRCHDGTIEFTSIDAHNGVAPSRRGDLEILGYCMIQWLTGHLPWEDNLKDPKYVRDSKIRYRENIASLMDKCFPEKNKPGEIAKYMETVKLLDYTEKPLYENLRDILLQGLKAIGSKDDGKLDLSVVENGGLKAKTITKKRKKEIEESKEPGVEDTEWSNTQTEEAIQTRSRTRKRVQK

ΔTm	Compound
-0.1 °C	CC(C)n1cnc2c(NCc3ccccc3)nc(NCCCO)nc21
1.6 °C	Cn1cc(C2=C(c3cn(CCCSC(=N)N)c4ccccc34)C(=O)NC2=O)c2ccccc21

molecular target: Serine/threonine-protein kinase pim-3 (Homo sapiens) (UniProt Q86V86)

ΔTm	Compound
1 °C	CC(C)n1cnc2c(NCc3ccccc3)nc(NCCCO)nc21
7.7 °C	Cn1cc(C2=C(c3cn(CCCSC(=N)N)c4ccccc34)C(=O)NC2=O)c2ccccc21

molecular target: Calcium/calmodulin-dependent protein kinase type II subunit gamma (Homo sapiens) (UniProt Q13555)

ΔTm	Compound
0.3 °C	CC(C)n1cnc2c(NCc3ccccc3)nc(NCCCO)nc21
5.2 °C	Cn1cc(C2=C(c3cn(CCCSC(=N)N)c4ccccc34)C(=O)NC2=O)c2ccccc21

molecular target: Serine/threonine-protein kinase 25 (Homo sapiens) (UniProt O00506)
Sequence (O00506 whole entry, looked up): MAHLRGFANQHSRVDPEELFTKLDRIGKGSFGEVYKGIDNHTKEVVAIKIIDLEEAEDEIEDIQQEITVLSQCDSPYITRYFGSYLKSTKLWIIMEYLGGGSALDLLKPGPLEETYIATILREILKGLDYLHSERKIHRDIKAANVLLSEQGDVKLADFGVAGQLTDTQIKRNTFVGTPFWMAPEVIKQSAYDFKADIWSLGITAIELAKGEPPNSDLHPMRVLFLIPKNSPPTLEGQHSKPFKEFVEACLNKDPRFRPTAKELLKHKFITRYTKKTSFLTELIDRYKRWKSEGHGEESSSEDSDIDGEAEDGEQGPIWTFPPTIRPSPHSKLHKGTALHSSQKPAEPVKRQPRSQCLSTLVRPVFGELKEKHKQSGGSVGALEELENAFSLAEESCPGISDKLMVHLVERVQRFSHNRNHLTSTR

ΔTm	Compound
0.1 °C	CC(C)n1cnc2c(NCc3ccccc3)nc(NCCCO)nc21
3.9 °C	Cn1cc(C2=C(c3cn(CCCSC(=N)N)c4ccccc34)C(=O)NC2=O)c2ccccc21

molecular target: T3, Serine/threonine-protein kinase 17A (Homo sapiens) (UniProt Q9UEE5)
T3 sequence (whole entry): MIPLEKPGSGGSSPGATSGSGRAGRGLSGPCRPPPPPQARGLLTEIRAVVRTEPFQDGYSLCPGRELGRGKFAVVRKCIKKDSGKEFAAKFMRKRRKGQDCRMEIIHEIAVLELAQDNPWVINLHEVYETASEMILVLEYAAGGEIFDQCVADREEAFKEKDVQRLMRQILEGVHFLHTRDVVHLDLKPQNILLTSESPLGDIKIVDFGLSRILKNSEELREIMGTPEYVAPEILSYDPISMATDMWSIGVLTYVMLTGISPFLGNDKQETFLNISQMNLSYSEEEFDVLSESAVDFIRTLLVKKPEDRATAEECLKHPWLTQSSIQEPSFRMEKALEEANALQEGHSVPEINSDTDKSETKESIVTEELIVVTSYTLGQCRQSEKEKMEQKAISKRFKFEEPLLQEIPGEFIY

ΔTm	Compound
0 °C	CC(C)n1cnc2c(NCc3ccccc3)nc(NCCCO)nc21
4.3 °C	Cn1cc(C2=C(c3cn(CCCSC(=N)N)c4ccccc34)C(=O)NC2=O)c2ccccc21

molecular target: Serine/threonine-protein kinase pim-1 (Homo sapiens) (UniProt P11309)
Sequence (P11309 whole entry, looked up): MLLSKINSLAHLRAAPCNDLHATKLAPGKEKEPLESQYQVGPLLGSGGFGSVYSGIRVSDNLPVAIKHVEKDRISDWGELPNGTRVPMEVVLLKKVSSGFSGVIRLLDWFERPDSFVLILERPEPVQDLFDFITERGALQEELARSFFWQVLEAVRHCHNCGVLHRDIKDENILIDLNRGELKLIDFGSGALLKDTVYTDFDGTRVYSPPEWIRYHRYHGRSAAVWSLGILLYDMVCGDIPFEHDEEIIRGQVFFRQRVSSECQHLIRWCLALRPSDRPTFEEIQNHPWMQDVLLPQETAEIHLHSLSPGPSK

ΔTm	Compound
0.1 °C	CC(C)n1cnc2c(NCc3ccccc3)nc(NCCCO)nc21
9.7 °C	Cn1cc(C2=C(c3cn(CCCSC(=N)N)c4ccccc34)C(=O)NC2=O)c2ccccc21

molecular target: Serine/threonine-protein kinase pim-2 (Homo sapiens, UniProt Q9P1W9)
Sequence (Q9P1W9 whole entry, looked up): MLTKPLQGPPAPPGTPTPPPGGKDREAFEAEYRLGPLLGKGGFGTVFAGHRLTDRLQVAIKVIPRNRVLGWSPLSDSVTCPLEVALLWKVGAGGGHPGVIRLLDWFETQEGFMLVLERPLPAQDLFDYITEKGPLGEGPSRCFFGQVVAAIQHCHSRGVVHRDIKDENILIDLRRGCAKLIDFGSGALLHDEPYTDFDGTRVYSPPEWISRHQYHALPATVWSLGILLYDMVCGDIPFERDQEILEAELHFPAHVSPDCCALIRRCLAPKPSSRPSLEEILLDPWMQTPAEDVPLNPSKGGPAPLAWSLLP

ΔTm	Compound
0.2 °C	CC(C)n1cnc2c(NCc3ccccc3)nc(NCCCO)nc21
5.6 °C	Cn1cc(C2=C(c3cn(CCCSC(=N)N)c4ccccc34)C(=O)NC2=O)c2ccccc21

molecular target: Ribosomal protein S6 kinase alpha-3 (Homo sapiens) (UniProt P51812)

ΔTm	Compound
2.5 °C	CC(C)n1cnc2c(NCc3ccccc3)nc(NCCCO)nc21
2.1 °C	Cn1cc(C2=C(c3cn(CCCSC(=N)N)c4ccccc34)C(=O)NC2=O)c2ccccc21

molecular target: Calcium/calmodulin-dependent protein kinase type II subunit delta (Homo sapiens) (UniProt Q13557)
Sequence (Q13557 whole entry): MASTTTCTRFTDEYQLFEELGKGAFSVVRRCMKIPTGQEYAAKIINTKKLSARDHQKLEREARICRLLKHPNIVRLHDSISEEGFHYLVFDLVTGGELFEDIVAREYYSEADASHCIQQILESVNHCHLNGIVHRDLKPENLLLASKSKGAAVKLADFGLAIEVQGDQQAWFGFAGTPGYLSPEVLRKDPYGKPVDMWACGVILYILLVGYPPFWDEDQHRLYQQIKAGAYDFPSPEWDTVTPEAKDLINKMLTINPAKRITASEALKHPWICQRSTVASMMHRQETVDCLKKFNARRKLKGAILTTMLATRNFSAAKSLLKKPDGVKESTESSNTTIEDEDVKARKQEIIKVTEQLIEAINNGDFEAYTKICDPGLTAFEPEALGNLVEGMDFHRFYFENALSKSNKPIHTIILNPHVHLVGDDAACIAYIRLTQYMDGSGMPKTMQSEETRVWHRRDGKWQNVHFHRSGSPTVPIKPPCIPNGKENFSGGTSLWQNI

ΔTm	Compound
-0.1 °C	CC(C)n1cnc2c(NCc3ccccc3)nc(NCCCO)nc21
1.1 °C	Cn1cc(C2=C(c3cn(CCCSC(=N)N)c4ccccc34)C(=O)NC2=O)c2ccccc21

molecular target: Calcium/calmodulin-dependent protein kinase type 1D (Homo sapiens) (UniProt Q8IU85)
Sequence (Q8IU85 whole entry, looked up): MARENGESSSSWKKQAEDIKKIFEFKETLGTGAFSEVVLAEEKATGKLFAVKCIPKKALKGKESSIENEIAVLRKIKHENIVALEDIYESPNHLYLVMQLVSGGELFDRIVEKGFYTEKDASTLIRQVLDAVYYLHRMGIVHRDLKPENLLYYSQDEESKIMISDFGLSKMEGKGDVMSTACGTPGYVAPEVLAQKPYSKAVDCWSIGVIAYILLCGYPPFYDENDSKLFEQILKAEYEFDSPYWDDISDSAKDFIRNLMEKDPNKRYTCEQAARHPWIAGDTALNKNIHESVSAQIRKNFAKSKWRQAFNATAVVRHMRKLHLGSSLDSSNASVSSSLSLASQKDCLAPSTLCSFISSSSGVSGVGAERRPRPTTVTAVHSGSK

ΔTm	Compound
0.1 °C	CC(C)n1cnc2c(NCc3ccccc3)nc(NCCCO)nc21
2 °C	Cn1cc(C2=C(c3cn(CCCSC(=N)N)c4ccccc34)C(=O)NC2=O)c2ccccc21

molecular target: Death-associated protein kinase 3 (Homo sapiens) (UniProt O43293)
Sequence (O43293 whole entry, looked up): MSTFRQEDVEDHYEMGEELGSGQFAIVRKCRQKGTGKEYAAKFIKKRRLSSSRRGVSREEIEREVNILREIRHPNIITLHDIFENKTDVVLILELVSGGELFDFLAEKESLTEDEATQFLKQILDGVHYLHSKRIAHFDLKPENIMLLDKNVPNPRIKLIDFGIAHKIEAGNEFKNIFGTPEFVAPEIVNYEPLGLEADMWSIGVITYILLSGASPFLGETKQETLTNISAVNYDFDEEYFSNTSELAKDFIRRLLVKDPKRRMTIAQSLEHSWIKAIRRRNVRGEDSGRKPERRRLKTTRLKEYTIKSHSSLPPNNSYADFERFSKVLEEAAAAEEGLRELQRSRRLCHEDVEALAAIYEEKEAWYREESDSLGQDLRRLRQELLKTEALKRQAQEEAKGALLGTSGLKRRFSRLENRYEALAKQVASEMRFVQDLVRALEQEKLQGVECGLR

Compound	ΔTm
CC(C)n1cnc2c(NCc3ccccc3)nc(NCCCO)nc21	0.7 °C
Cn1cc(C2=C(c3cn(CCCSC(=N)N)c4ccccc34)C(=O)NC2=O)c2ccccc21	1.5 °C

molecular target: Dual specificity mitogen-activated protein kinase kinase 2 (Homo sapiens, UniProt P36507)
Sequence (P36507 whole entry): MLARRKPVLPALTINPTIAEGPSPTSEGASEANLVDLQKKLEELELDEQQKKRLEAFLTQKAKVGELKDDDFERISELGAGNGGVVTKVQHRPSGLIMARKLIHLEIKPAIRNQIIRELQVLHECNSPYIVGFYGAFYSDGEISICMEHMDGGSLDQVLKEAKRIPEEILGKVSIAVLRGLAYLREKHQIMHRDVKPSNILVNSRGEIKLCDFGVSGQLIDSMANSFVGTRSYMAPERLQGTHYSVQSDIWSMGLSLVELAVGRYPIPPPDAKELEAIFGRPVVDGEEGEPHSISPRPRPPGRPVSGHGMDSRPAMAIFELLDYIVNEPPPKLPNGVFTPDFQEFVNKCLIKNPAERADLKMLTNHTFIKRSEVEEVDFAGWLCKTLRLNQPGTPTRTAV

ΔTm	Compound
-0.3 °C	CC(C)n1cnc2c(NCc3ccccc3)nc(NCCCO)nc21
0.9 °C	Cn1cc(C2=C(c3cn(CCCSC(=N)N)c4ccccc34)C(=O)NC2=O)c2ccccc21

molecular target: Cyclin-dependent kinase 2 (Homo sapiens, UniProt P24941)

ΔTm	Compound
0.9 °C	CC(C)n1cnc2c(NCc3ccccc3)nc(NCCCO)nc21
8.4 °C	Cn1cc(C2=C(c3cn(CCCSC(=N)N)c4ccccc34)C(=O)NC2=O)c2ccccc21

molecular target: T4, Lymphokine-activated killer T-cell-originated protein kinase (Homo sapiens) (UniProt Q96KB5)
T4 sequence (whole entry): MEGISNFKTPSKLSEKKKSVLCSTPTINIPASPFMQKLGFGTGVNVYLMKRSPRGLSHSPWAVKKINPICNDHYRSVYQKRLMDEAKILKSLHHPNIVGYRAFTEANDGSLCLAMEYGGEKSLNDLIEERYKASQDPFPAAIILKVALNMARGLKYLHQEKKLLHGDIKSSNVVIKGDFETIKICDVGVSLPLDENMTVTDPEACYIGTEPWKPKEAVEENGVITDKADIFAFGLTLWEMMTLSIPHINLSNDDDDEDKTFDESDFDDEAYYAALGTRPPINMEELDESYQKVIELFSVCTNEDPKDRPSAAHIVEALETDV

Compound	ΔTm
CC(C)n1cnc2c(NCc3ccccc3)nc(NCCCO)nc21	0.2 °C
Cn1cc(C2=C(c3cn(CCCSC(=N)N)c4ccccc34)C(=O)NC2=O)c2ccccc21	-0.1 °C
